Values after ≈ are worked out from the molar mass of the structure shown.

These results are taken from paper PMC11877530, “Heterologous Expression and Characterization of Estercin A, a Class II Lanthipeptide Derived from Clostridium estertheticum CF016, with Antimicrobial Activity against Clinically Relevant Pathogens” (Journal of Natural Products, 2025).

The subject of one series is C. perfringens. The settings on record: reported value, ref not given; cited from earlier work.
The subject of the next series is Gram-positive strains. The format is cell-based.
In series [1] the test system is Lactococcus lactis MG1363. The settings on record: 18 h.
The nature of series [2]: pH stability (remaining antimicrobial activity). The note with it: pH 2, 4, 7 or 10 adjusted with HCl or NaOH; read-out antimicrobial activity on L. lactis MG1363 agar; three biological replicates.
Series [3] has as its system Enterococcus faecium LMG16003 (VRE). The settings on record: LMG16003, 18 h.
Series [4] concerns Listeria monocytogenes LMG10470. The settings on record: LMG10470, 18 h.
For series [5], the system named is Clostridium botulinum CECT551. The settings on record: Reinforced Clostridium Medium, Coy Anaerobic Chamber, 18 h, 37 °C, three biological replicates.
Series [6] deals with Bacillus cereus ATCC14579. The note with it: ATCC14579, 18 h.
Series [7] can be described thus: Thermal stability (remaining antimicrobial activity). The format is physicochemical. The settings on record: 4 h at 95 °C; read-out antimicrobial activity on L. lactis MG1363 agar; three biological replicates.
Series [8] has as its system Staphylococcus aureus LMG15975 (MRSA). The settings on record: LMG15975, 18 h.
The test system of series [9] is Staphylococcus aureus LMG10147. The settings on record: LMG10147, 18 h.
Series [10] concerns L. lactis MG1363. The experiment in a line: Fluorescence microscopy assay (SYTO-9/PI) for membrane pore formation. It counts as cell-based, Lactococcus lactis. The settings on record: L. lactis MG1363, peptide at 2-fold MIC, SYTO-9 and 5 μM PI, 15 min room temperature. As to the method:
An overnight culture of L. lactis MG1363 was added to the GM17 broth to a final concentration of 1% (v/v) and grown to an OD600 of 0.8. The culture was centrifuged at 6,000 rpm for 5 min and washed three times in the MHB medium. […] Simultaneously, 5 μM PI and SYTO 9 were added to the samples. After incubation at room temperature for 15 min, the samples were centrifuged, and the supernatant was removed. And the cells were washed three times with MHB. After that, the harvest cells were loaded on 1.5% agarose pads and analyzed by a DeltaVision Elite microscope (Applied Precision).

Series [11] deals with Enterococcus faecalis LMG16216 (VRE). The settings on record: LMG16216, 18 h.
A short description of series [12]: Spot-on-lawn-based lipid II binding (competition) assay. Also noted: species or system Lactococcus lactis. The note with it: spot-on-lawn on L. lactis MG1363 GM17 agar; estercin A 8 μg spotted adjacent to lipid II (300 μM, 3 μL); nisin positive, daptomycin negative control. As to the method:
The binding of the peptides to pure lipid II ([…]) was tested by the spot-on-the- lawn assay. Here, nisin and daptomycin were used for comparison.[51]

Series [13] deals with Clostridium perfringens CECT376. The settings on record: Reinforced Clostridium Medium, Coy Anaerobic Chamber, 18 h, 37 °C, three biological replicates.
Series [14] deals with L. lactis MG1363. The experiment in a line: Time killing assay. The format is cell-based, Lactococcus lactis. The settings on record: L. lactis MG1363, 5 × 10^5 CFU/mL, 10-fold the MIC, GM17, 30 °C, CFU counts, triplicate. As to the method: Time-killing assays were conducted according to the previously described protocol.[57] Briefly, an overnight culture of L. lactis MG1363 was diluted 50-fold in GM17 and incubated at 30 °C. The cells were grown for about 3 h to an OD600 of 0.5, and then the cell concentration was adjusted to 5 × 10^5 CFU/mL. […] Untreated cells were used as a control. At predetermined time points, 50 μL was taken from each sample, and undiluted and 10-fold serially diluted suspensions were plated on GM17 agar plates. After the overnight incubation at 30 °C, the colonies on the plates were counted and then calculated as the colony-forming units per milliliter. The experiment was carried out in triplicate.

For series [15], the system named is Clostridium tetani CECT4629. The note with it: Reinforced Clostridium Medium, Coy Anaerobic Chamber, 18 h, 37 °C, three biological replicates.

As for ruminococcin A, the MIC in the series on C. perfringens was 75 µg/mL.

As for `C=C1NC(=O)[C@H](C(C)C)NC(=O)C2CSC[C@@H](C(=O)N[C@@H](CCCCN)C(=O)O)NC(=O)[C@H](CSC(C)C3NC(=O)[C@H](Cc4ccccc4)NC(=O)C(NC(=O)[C@@H](NC(=O)[C@@H](NC(=O)[C@@H](NC(=O)CNC(=O)CNC(=O)CN)C(C)C)[C@@H](C)CC)[C@@H](C)O)C(C)SC[C@H](NC(=O)[C@H](CCC(=O)O)NC(=O)[C@H](Cc4c[nH]cn4)NC3=O)C(=O)N[C@@H](Cc3ccc(O)cc3)C(=O)N[C@@H](Cc3ccc(O)cc3)C(=O)N[C@@H](CC(N)=O)C(=O)N2)NC(=O)CNC(=O)CNC(=O)[C@H](Cc2c[nH]c3ccccc23)NC(=O)[C@H](CO)NC(=O)[C@H](C)NC(=O)[C@@H]2CCCN2C1=O` (some centres unmarked) [estercin A], the “Antimicrobial activity against selected Gram-positive strains” value in the series on Gram-positive strains is “broad spectrum of activity”. For the same compound, the minimal inhibitory concentration (MIC) in [1] is 4 µg/mL (≈ 1.45 µM); in series [3], 64 µg/mL (≈ 23.2 µM); in series [4], greater than 64 µg/mL; in series [5] it was 32 µg/mL (≈ 11.6 µM); in series [6], 8 µg/mL (≈ 2.91 µM); in series [8] it was 4 µg/mL (≈ 1.45 µM). Also, the minimal inhibitory concentration (MIC) was 16 µg/mL (≈ 5.81 µM) in [9], 64 µg/mL (≈ 23.2 µM) in series [11], 1 µg/mL (≈ 0.363 µM) in [13] and 4 µg/mL (≈ 1.45 µM) in series [15]. Moreover, the “pH stability: activity retained after incubation” value in series [2] is “retained most of their activity”. In addition, the “Reduction of antimicrobial activity after 95 °C exposure” value in series [7] was “less than 30%”. The Membrane pore-forming ability result with L. lactis MG1363 [10] was “cannot form pores on the membrane of target cells”. Moreover, the “Lipid II binding” value in series [12] is reported as “binds to lipid II”. Moreover, the Rate of killing entry with L. lactis MG1363 [14] was “slower rate of killing”.
